Results from patent publication US5612317A, “Method for delivering estrogen” (priority 1994, dated 1997).

Columns and labels:
[1] = Side-effects and vaginal bleeding in ovariectomized rats dosed orally for two weeks; format: in vivo
Description: Based on the results in rats and humans with the model vitamin D-3β-glucoside and experience with giving estradiol-3-(β-glucoside) to ovariectomized rats, there is no indication of potential additive or multiplicative toxicity.

[2] = test system: estradiol receptor; details: "there is evidence"; no method given; cited from earlier work
[3] = injected into normal women; cited from earlier work
[4] = Circulating concentration of 17β-estradiol and estrone in ovariectomized rats after daily oral dosing for two weeks (radioimmunoassay); format: in vivo; details: six ovariectomized rats per group
Protocol: De-conjugation of estradiol-3-(β-glucoside) to estradiol will occur slowly in peripheral tissues, and therefore, will maintain circulating levels of estradiol at a more physiologic level for a longer period of time. A study in humans with the vitamin D-3β-glucoside was conducted as a model compound. The blood level of vitamin D after an equimolar dose of vitamin D3 and vitamin D3 -3β-glucoside was compared. […] Thus, from this single dose vitamin D-glucoside study, there would not appear to be any hazard to the prolonged duration of action of the estradiol resulting from the slow de-conjugation of the estradiol-3-(β-glucoside). A study in ovariectomized rats was also conducted to determine the blood level of estradiol and estrone after receiving three different doses of either estradiol or estradiol-3-(β-glucoside) orally each day for two weeks. […] Thus, estradiol-3-(β-glucoside) will increase circulating concentrations of estradiol.
In vivo rat studies were carried out where estradiol-3-(β-glucoside) was given orally for two weeks to ovariectomized rats.
Circulating concentration of 17β-estradiol and estrone
in six ovariectomized rats per group that received an oral
dose of either 17β-estradiol or 17β-estradiol-3 β-
glucoside (estradiol-glc) each day for two weeks.

[5] = Incubation of 3H-vitamin D3-glucoside with rat intestinal homogenate, reverse phase HPLC; format: in vitro ADME; details: 3 hours at 37° C
Protocol: FIG. 1A and FIG. 1B depict reverse phase HPLC (2% H2 O/methanol, 1.5 ml/min) of ^3 H-vitamin D3 -glucoside before (FIG. 1A) and after (FIG. 1B) incubation with rat intestinal homogenate for 3 hours at 37° C.
(§1) A study was conducted whereby ^3 H-vitamin D3 -3β-glucoside was incubated with intestine and kidney homogenates. […] Therefore, the same results for estradiol-3β-glucoside would be expected since vitamin D and estradiol are both fat soluble sterols.

[6] = Incubation of 3H-vitamin D3-glucoside with rat kidney homogenate, reverse phase HPLC; format: in vitro ADME; details: 3 hours at 37° C
Protocol: FIG. 1C depicts reverse phase HPLC (2% H2 O/methanol, 1.5 ml/min) of ^3 H-vitamin D3 -glucoside after incubation with rat kidney homogenate for 3 hours at 37° C.
as §1

[7] = listed as 3 H-vitamin D3 -glucoside

SMILES: C[C@]12CC[C@@H]3c4ccc(O[C@@H]5O[C@H](CO)[C@@H](O)[C@H](O)[C@H]5O)cc4CC[C@H]3[C@@H]1CC[C@@H]2O [estradiol-glc, 17β-estradiol-3β-glucoside]
- Untoward side-effects or vaginal bleeding ([1]; rat, in vivo, po): No untoward side-effects or vaginal bleeding was noted
- Interaction with the estradiol receptor [2]: does not interact with the estradiol receptor

SMILES: C[C@]12CC[C@@H]3c4ccc(O)cc4CC[C@H]3[C@@H]1CC[C@H]2O[C@@H]1O[C@H](CO)[C@@H](O)[C@H](O)[C@H]1O [17α-estradiol-17-glucoside]
- Metabolite recovered in urine [3]: the 3-glucuronide derivatives of each compound were recovered in the urine

SMILES: C[C@]12CC[C@@H]3c4ccc(O)cc4CC[C@H]3[C@@H]1CC[C@@H]2OC1O[C@H](CO)[C@@H](O)[C@H](O)[C@H]1O (stereo partly drawn) [17β-estradiol-17-glucoside]
- Metabolite recovered in urine [3]: the 3-glucuronide derivatives of each compound were recovered in the urine

SMILES: C[C@]12CC[C@@H]3c4ccc(O)cc4CC[C@H]3[C@@H]1CC[C@@H]2O [estradiol, 17β-estradiol, reference compound]
- Blood concentration of estradiol ([4]; dose 1, each day for two weeks): 3.5 ± 0.7 pg/mL
- Blood concentration of estradiol ([4]; dose 10, each day for two weeks): 8.7 ± 2.1 pg/mL
- Blood concentration of estradiol ([4]; dose 15, each day for two weeks): 46.8 ± 10.4 pg/mL
- Untoward side-effects or vaginal bleeding ([1]; oral, two weeks, ovariectomized rats): No untoward side-effects or vaginal bleeding was noted

SMILES: C=C1CC[C@H](O[C@@H]2O[C@H](CO)[C@@H](O)[C@H](O)[C@H]2O)C/C1=C/C=C1\CCC[C@]2(C)[C@@H]([C@H](C)CCCC(C)C)CC[C@@H]12 [vitamin D3 -3β-glucoside]
- Metabolism of the glucoside / formation of 3H-vitamin D3 [5]: None of the vitamin D3 -3β-glucoside was metabolized in the intestinal homogenates
- Metabolism of the glucoside / formation of 3H-vitamin D3 [5, 7]: No ^3 H-vitamin D3 was formed
- De-conjugation of the glucoside / formation of 3H-vitamin D3 ([6]; listed as 3 H-vitamin D3 -3β-glucoside): only the kidney homogenate was capable of removing the glucoside from vitamin D3
- De-conjugation of the glucoside / formation of 3H-vitamin D3 [6, 7]: formation of ^3 H-vitamin D3
- De-conjugation of the glucoside / formation of 3H-vitamin D3 ([6]; listed as vitamin D-3β-glucoside): β-glucosidase(s) in the kidney are able to de-conjugate the β-glucoside from the vitamin D-3β-glucoside
